Starred links: 1 amine or outer side, 2 acyl side, 3 side chain; linkers in the order of their positions; H or OH if unused. Positions of bridges follow the written chain, without caps; N, C: chain ends. Non-standard residues stand in square brackets, D forms with d. Residues, ends and D or L forms follow the SMILES beside them. Chains are numbered I, II in the order given. Actinocin(9to1) = Cc1c2oc3c(C)ccc(C(=O)[*:1])c3nc-2c(C(=O)[*:2])c(N)c1=O; NMeV = CN[C@H](C(=O)O)C(C)C; Sar = CNCC(=O)O
Experiments:
[1] = test system: WEHI-13VAR cells; experiment: TNF bioassay: TNF-induced death of WEHI-13VAR cells in the presence of AcD (MTT); type: cell-based
Description: WEHI-13VAR is a fibrosarcoma cell line that is extremely sensitive to TNF-induced cell death in the presence of AcD (0.5 μg/ml) and is commonly used in TNF bioassays. In TNF bioassays, the presence of AcD is a standard approach designed to increase the sensitivity of cells to TNF. TNF acts by binding to its two functionally distinct receptors, TNFR1 and TNFR2. To identify which TNF receptor was expressed on WEHI-13VAR cells, we measured the expression of TNFR1 and TNFR2 on WEHI-13VAR by FACS. […] In the case of labeling with PE anti-mouse TNFR2 antibody, the expression of TNFR2 was higher than in the case of labeling with the isotype control by 50%. […] Furthermore, in order to investigate which TNF receptor is responsible for TNF-induced cell death, we stimulated the cells with TNF, and co-cultured the cells with anti-TNFR1 antibody or anti-TNFR2 antibody for 24 hours. Cell viability was measured by MTT. […]
CHIs are injections developed in China and approved by the China Food and Drug Administration. […] We screened eleven CHIs and assessed their effects on WEHI-13VAR cells by TNF bioassay. […]
WEHI-13VAR cells were seeded in 96-well plates at 1.5×10^4 cells/well. […] Absorbance values were read at 570 nm using a 1420 Multilabel counter victor (PerkinElmer, Waltham, Mass., USA). Cell viability was expressed as the ratio of absorbance values between the sample and the blank control group.

[2] = test system: Tregs; experiment: TNF-induced up-regulation of Tregs and Foxp3/TNFR2 expression in cultured lymphocytes (FACS); type: cell-based; details: in vitro
Description: FIG. 5. […] Lymphocytes were cultured in the presence of IL-2 (10 ng/mL) or IL-2+TNF (10 ng/mL each), with medium alone or with scutellarin (25-50 μM) for 72 hours. (A) Typical FACS analysis of Tregs is shown. The data as shown are representative of at least three separate experiments with similar results. The numbers in the FACS plots show the proportion of cells in the respective quadrants. (B) Summary of the proportion of CD4^+Foxp3^+ cells in CD4^+ cells. (C) Summary of MFI of Foxp3 expression on Tregs. (D) Typical FACS plots of the proportion of TNFR2^+ cells in Tregs. (E) Summary of the proportion of TNFR2^+ cells in CD4^+Foxp3^+Tregs. (F) Summary of MFI of TNFR2 expression on Tregs (by gating on Foxp3^+ cells) (N=3, mean±SEM). ** p<0.01, *** p<0.001, compared to the “TNF+IL-2” group. The data as shown are representative of at least three separate experiments with similar results.
We then explored the effect of scutellarin on the TNF-induced proliferation of Tregs in an in vitro experiment. […]
Lymphocytes were obtained from spleens, axillary lymph nodes, inguinal lymph nodes and mesenteric lymph nodes of mice. […] The proliferation of Tregs was assessed by CFSE dilution assay, and the proportion of Foxp3^+ cells in the CD4^+ subset and the proportion of TNFR2 expressed on Tregs were analyzed by FACS. […] The expression of Foxp3 and TNFR2 was analyzed by FACS. […]

Compound: Cc1c2oc3c(C)ccc(C(=O)N[C@@H]4C(=O)N[C@H](C(C)C)C(=O)N5CCC[C@H]5C(=O)N(C)CC(=O)N(C)[C@@H](C(C)C)C(=O)O[C@@H]4C)c3nc-2c(C(=O)N[C@@H]2C(=O)N[C@H](C(C)C)C(=O)N3CCC[C@H]3C(=O)N(C)CC(=O)N(C)[C@@H](C(C)C)C(=O)O[C@@H]2C)c(N)c1=O [AcD, actinomycin D, reference compound] (I: T[dV]P[Sar][NMeV] / II: T[dV]P[Sar][NMeV]; ester I:1-I:C, II:1-II:C; linker I:N-II:N via Actinocin(9to1))
- death of WEHI-13VAR cells induced by AcD ([1]; AcD 0.5 μg/ml alone): approximately 30%

Compound: O=C(O)[C@H]1O[C@@H](Oc2cc3oc(-c4ccc(O)cc4)cc(=O)c3c(O)c2O)[C@H](O)[C@@H](O)[C@@H]1O [scutellarin]
- cytotoxicity against WEHI-13VAR cells ([1]; scutellarin 12.5-200 μM): no significant cytotoxicity against WEHI-13VAR cells
- 50% lethal dose of scutellarin [2]: higher than 100 μM
